{"source": "paper PMC7024361", "about": "“Vaginal Polyelectrolyte Layer-by-Layer Films Based on Chitosan Derivatives and Eudragit® S100 for pH Responsive Release of Tenofovir” (Marine Drugs, 2020)", "key": {"[1]": {"test": "Material cytotoxicity, CellTiter Glo", "type": "cell-based", "conditions": "human, maximum concentration tested 1000 µg/mL", "procedure": "To study cell toxicity, the materials were incubated in culture media at 37 °C and 5% CO2 for 48 h before the assay to ensure that any potential toxic component would be present in the dilutions to be tested. The cell culture was then treated with a suspension of base 5 serial dilutions of the most concentrated suspension (1000 µg/mL). Experiments were performed in lymphoblastic (MT-2) and macrophage-monocyte (THP-1) derived cell lines to evaluate toxicity on the immune cells present in vaginal or uterine mucosae, and in a uterine epithelial cell line (HEC-1A) to evaluate the potential damage to mucosal integrity (Figure 12).\nThree human cell lines were used: a lymphoblastic cell line, MT-2 [65], a macrophage-monocyte derived cell line, THP-1 (ATCC® TIB-202) and a uterine/endometrial epithelial cell line, HEC-1A (ATCC® HTB-112™) (kindly provided by Maria Angeles Muñoz). All the cell lines were cultured in RPMI 1640 medium supplemented with 10 % (v/v) fetal bovine serum, 2 mM L-glutamine and […] streptomycin (all Whittaker M.A. Bio-Products, Walkerville, MD, USA) at 37 °C in a humidified atmosphere of 5 % CO2. To detach the HEC-1-A cells, the medium was removed and the flask was rinsed during 10 min with 1 to 2 mL of trypsin 0.25%—EDTA 0.03% solution. The medium was replaced every three days after cell centrifugation at 1500 rpm for 5 min.\nCell toxicity was measured using the CellTiter Glo kit (Promega, Madison, WI, USA). Cells were incubated in 96-well plates at a density of […] cells per well (MT-2 and THP-1) and 2 × 10^4 (HEC-1A) in complete medium. To assess the cytotoxic effect, cells were exposed to fresh medium containing different concentrations of lactic acid, tartaric acid, citric acid, TEC and ES100 suspensions, or the same concentration of PBS 1× as control. Experiments were performed in triplicate and the culture was maintained at 37 °C and 5% CO2 humidified atmosphere for 48 h. A standard method was followed to suspend the materials in PBS 1× [66]. After incubation for 48 h, the medium was removed from cell cultures and 50 µL of CellTiter Glo reactive was added to each well on the plate. Relative luminescence units (RLUs) were measured in a luminometer (Sirius, Berthold Detection Systems). Cytotoxic concentration 50 (CC50) values were calculated using GraphPad Prism Software (non-linear regression, log inhibitor versus response). The results of the cytotoxic assay are shown as the average of at least three individual experiments."}, "[2]": {"tested_on": "HIV", "set-up": "method as in PMID 22964245", "conditions": "women; cited from earlier work"}, "[3]": {"conditions": "HEC-1A uterine/endometrial epithelial cells"}, "[4]": {"conditions": "MT-2 lymphoblastic cells, MT-2, 48 h"}, "[5]": {"conditions": "THP-1 macrophage-monocyte derived cells, THP1, 48 h"}}, "data": [{"smiles": "O=C(O)CC(O)(CC(=O)O)C(=O)O", "note": "[Citric acid, citric acid]", "values": [{"measurement": "CC50 at 48 h", "setting": "[1]; [3]", "value": "> 1000", "unit": "µg/mL"}, {"measurement": "CC50 at 48 h", "setting": "[1]; [4]", "value": "> 1000", "unit": "µg/mL"}, {"measurement": "CC50 at 48 h", "setting": "[1]; [5]", "value": "~1000", "unit": "µg/mL"}]}, {"smiles": "CC(O)C(=O)O", "note": "(stereo not drawn) [Lactic acid, L(+)-Lactic acid]", "values": [{"measurement": "CC50 at 48 h", "setting": "[1]; [3]", "value": "> 1000", "unit": "µg/mL"}, {"measurement": "CC50 at 48 h", "setting": "[1]; [4]", "value": "> 1000", "unit": "µg/mL"}, {"measurement": "CC50 at 48 h", "setting": "[1]; [5]", "value": "> 1000", "unit": "µg/mL"}]}, {"smiles": "CCOC(=O)CC(O)(CC(=O)OCC)C(=O)OCC", "note": "[TEC, triethylcitrate]", "values": [{"measurement": "CC50 at 48 h", "setting": "[1]; [3]", "value": "> 1000", "unit": "µg/mL"}, {"measurement": "CC50 at 48 h", "setting": "[1]; [4]", "value": "~1000", "unit": "µg/mL"}, {"measurement": "CC50 at 48 h", "setting": "[1]; [5]", "value": "> 1000", "unit": "µg/mL"}]}, {"smiles": "C[C@H](Cn1cnc2c(N)ncnc21)OCP(=O)(O)O", "note": "[TFV, Tenofovir]", "values": [{"measurement": "cervicovaginal fluid concentration that confers protection against HIV", "setting": "[2]", "value": 1000, "unit": "ng/mL"}]}, {"smiles": "O=C(O)C(O)C(O)C(=O)O", "note": "(stereo not drawn) [Tartaric acid, L(+)-Tartaric acid]", "values": [{"measurement": "CC50 at 48 h", "setting": "[1]; [3]", "value": "~200", "unit": "µg/mL"}, {"measurement": "CC50 at 48 h", "setting": "[1]; [4]", "value": "> 1000", "unit": "µg/mL"}, {"measurement": "CC50 at 48 h", "setting": "[1]; [5]", "value": "> 1000", "unit": "µg/mL"}]}]}
